Source: patent US20110212948A1 (priority 2008, published 2011)
Where two headings read alike, the source gives them in different places.

Tests used:
[1] = Multiple dose study: peak and trough plasma meloxicam concentrations; assay type: in vivo, foals
Procedure: Blood for ‘trough’ serum levels was collected from foals immediately prior to administration of morning treatment. ‘Peak’ plasma concentrations were determined from blood samples collected 2 hours following administration of the morning treatment (as per the schedule above).

[2] = Multiple dose study: gastroscopy; assay type: in vivo, foals
[3] = Faecal occult blood testing with guaiac-based slides (Hemoccult Sensa); assay type: in vivo; conditions: treated and control foals, all occasions
Procedure: Faecal occult blood testing using guaiac-based slides (Hemoccult Sensa, Beckman Coulter Australia Pty Ltd, Gladesville, NSW) was evaluated for the detection of gastrointestinal bleeding in treated and control foals. This technique has been reported as a sensitive method for identifying gastric or right dorsal colon ulceration in adult horses (Pellegrini 2005). Faecal samples were collected on DSP days from all foals and processed according to the manufacturer's instructions. Tests were negative for blood (haemoglobin) on all occasions.

[4] = current study, foals, single oral dose 0.6 mg/kg, mean ± SD
[5] = in vivo, 0.6 mg/kg
[6] = adult horses, cited from earlier work
[7] = adult horses, cited from earlier work; remark: listed apart in the source
[8] = Multiple dose study: veterinary examination, haematology and serum biochemistry; conditions: 0.6 mg/kg every 12 hours for 14 days; except serum cholesterol
Procedure: Six foals were available for inclusion in this part of the study and were randomly assigned to treatment (four foals) or control groups (two foals). […] To ensure foals were recruited into the study within 4 weeks of birth, the study was performed twice, with 2 treated and one control foal in each replicate.
Foals were examined twice daily for the duration of the study. Staff responsible for veterinary examination of foals were blinded to treatment.
Peripheral blood samples were submitted for routine haematology and serum biochemistry at a commercial laboratory (Idexx Laboratories, Rydalmere, NSW) twice weekly (treatment days 0, 2, 6, 9, 13 and 16). Gastroscopy and urine analysis (Dip Stik and urine enzyme analysis1) were performed weekly on all foals.

[9] = Bioequivalence study (CML039) Reference
[10] = Bioequivalence study (CML039) Test

With `Cc1cnc(NC(=O)C2=C(O)c3ccccc3S(=O)(=O)N2C)s1` [meloxicam] the “Accumulation of drug in serum” value ([1]; foals, 0.6 mg/kg by mouth every 12 hours for 14 days) was “did not appear to accumulate”, the concentration at 14 days ([1]; horse, in vivo, foals less than 6 weeks, 0.6 mg/kg by mouth every 12 hours) was 100 to 1000 ng/mL and the concentration at 2 h ([1]; horse, in vivo, foals, 0.6 mg/kg by mouth every 12 hours for 14 days, 2 h after morning dose, read-out: Peak serum concentrations with repeated dosing) was 500 to 1200 ng/mL. For the same compound, the “Gastroscopy finding, margo plicatus of a treated foal (FIG. 18)” value ([2]; Day 7 of multiple dose study) was “normal margo plicatus”, the “Gastroscopy finding, treated foal F8 (FIG. 21)” value ([2]; Day 7 of multiple dose study, erythemia already present before single dose) was “superficial erosions of squamous mucosa” and the “Gastroscopy finding, margo plicatus of same treated foal (FIG. 19)” value ([2]; Day 14 of multiple dose study) was “small, well circumscribed and very superficial ulcer”. The “Gastric mucosal damage on gastroscopic examination” value ([2]; all foals, 0.6 mg/kg every 12 hours for 14 days) was “failed to identify evidence of significant gastric mucosal damage”, the “Gastroscopy finding, treated foal F8 (FIG. 22)” value ([2]; following 14 days of treatment) was “no evidence of ongoing mucosal ulceration” and the “Faecal occult blood (haemoglobin)” value [3] was “negative”. For the same compound, the Area under curve [4] was 3870.3 ng/mL/h, the “Adverse effects after a single oral dose (physical examination)” value [5] was “no adverse effects” and the “Albumin, mean post-Tx (±sem)” value ([5]; po) was 29 (±1) g/L. The “Creatinine, median post-Tx” value ([5]; po) was 0.09 mmol/L, the “Glucose, mean post-Tx (±sem)” value ([5]; po) was 8.8 (±0.6) mmol/L and the “Haemoglobin, mean post-Tx (±sem)” value ([5]; po) was 123 (±4) g/L. For the same compound, the “PCV, mean post-Tx (±sem)” value ([5]; po) was 35 (±1) %, the “Potassium, median post-Tx” value ([5]; po) was 4.0 mmol/L and the “Sodium, mean post-Tx (±sem)” value ([5]; po) was 138 (±1) mmol/L. The “Urea, mean post-Tx (±sem)” value ([5]; po) was 2.1 (±0.1) mmol/L, the Area under curve [6, 9] was 10752.4 ng/mL/h and the “Cmax (oral admin)” value [6, 9] was 777.5 ng/mL. For the same compound, the “Tmax (oral admin)” value [6, 9] was 3.8 h, the Area under curve [6, 10] was 11281.0 ng/mL/h and the “Tmax (oral admin)” value [6, 10] was 2.6 h. For the same compound, the Cmax ([7]; Lees et al 1991 (IV administration)) was 9230 ng/mL, the Area under curve ([7]; Lees et al 1991) was 14530 ng/mL/h and the Cmax ([7]; Little et al 2007 (IV administration)) was 9780 ng/mL. The Area under curve ([7]; Little et al 2007) was 33440 ng/mL/h, the “Cmax (oral admin)” value ([7]; Toutain et al 2004b) was 2580 ng/mL and the “Bioavailability (fasted)” value ([7]; fasted, Toutain et al 2004b) was 85.3. The “Bioavailability (fed)” value ([7]; fed, Toutain et al 2004b) was 95.9 and the “Haematology and serum biochemistry, treated vs control foals” value [8] was “no significant differences”.
